Assay results: patent US7838645B2, “Function of autophagy genes in cell death” (University of Maryland College Park, priority 2004, dated 2010)
Where a SMILES comes first, the peptide text is derived from it. The star is where a group is joined. Cbz = O=C(OCc1ccccc1)*; CH2Cl = ClC*; CH2F = FC*

Key:
L929 cells [1] = test: Cell death analysis (propidium iodide staining, flow cytometry) in L929 cells; format: cell-based, mouse; settings: for Induction of cell death (% cell loss): 40 hours, FIG. 9
Protocol: (§1) Cell viability was determined after treatments by staining with propidium iodide (2 μg/mL) and flow cytometric analysis on a FACScan. Percent cell death was quantitated as previously described (26).
In mouse L929 fibroblastic cells, tumor necrosis factor (TNF), oxidants, ceramide, and radiation can induce caspase-independent death (11). […] L929 cells were treated with 1 ul of dimethyl sulfoxide (DMSO) FIG. 1A (a and c) or 20 uM zVAD (b and d) for 24 hours and examined by phase contrast microscopy (a and b); or 4′,6′-diamidino-2-phenylindole-staining and fluorescent microscopy (c and d). Magnification: 200×. […] The percentage of vaculated cells is the fraction of cells that have 10 or more autophagic vacuoles by TEM. Statistical analysis is shown in FIG. 4 and morphometric analysis of zVAD-induced autophagy in L929 cells is quantitated in Table 1 setforth below. […]
L929 cells were treated with 1 ul/ml DMSO, 20 uM zVAD, 20 uM zFA, 20 uM LEHD, 20 uM DEVD, or 20 uM zAAD for 40 hours, and % cell loss was quantified by flow cytometry. […] Because zVAD is a potent inhibitor of caspase-8, it likely exerted its death effect through inhibition of caspase-8.

RAW264.7 cells = test: Cell loss by flow cytometry in RAW264.7 cells; format: cell-based, mouse; settings: FIG. 6
Protocol: as §1
(§2) The RAW264.7 cells were treated with 0.1 ug/ml Wortmannin (WM) or 10 mM 3-methyladenine (3-MA) for 1 hr and the with 100 uM zVAD for 48 hrs, after which cell loss was quantitated by flow cytometry. […] Mouse peritoneal macrophages cells were treated with 0.1 ug/ml Wortmannin (WM) or 10 mM 3-methyladenine (3-MA) for 1 hr and with 100 uM zVAD for 24 hrs, after which cell loss were quantitated by flow cytometry.

[2] = tested on: mouse peritoneal macrophages; test: Cell loss by flow cytometry in mouse peritoneal macrophages; format: cell-based; settings: FIG. 7
Protocol: as §1, §2

RIP = RIP cleavage by caspase-8 (Western blot, FIG. 11); format: cell-based; settings: cells treated with zVAD
Source text: It was observed that the signaling through the serine-threonine kinase RIP is essential for autophagic cell death. When RIP is cleaved and inactivated by caspase 8, then a mechanism is provided for the prevention of autophagic cell death. However, inhibition of caspase 8 allows RIP to transmit the signal needed to kill the cell through the autophagic pathway. […] Clearly, zVAD treatment prevents RIP from constitutive caspase-8 cleavage. The indicated band is the 42 kD proteolytic product that is characteristic of caspase-8 cleavage (1).

[3] = tested on: c-Jun N-terminal kinase (JNK); test: Detection of phosphorylated JNK/SAPK by Western blot in L929 cells; format: cell-based, mouse; settings: zVAD 24 hrs, 2% FBS, FIG. 2B
Protocol: L929 cells were treated with DMSO or zVAD for 24 hrs in the presence of 2% FBS. The cell lysate was spun for 10 minutes at 13000 rpm. 20 ul of the c-Jun beads (SAPK/JNK assay kit from Cell Signaling) were added to the supernatant and incubated overnight at 4° C. Beads were washed 4 times with lysis buffer and resuspended in 50 ul of 1× sample buffer. Samples were boiled for 5 minutes and analyzed by SDS-PAGE and Western blot for phosphorylated SAP/JNK by probing with phospho-JNK antibody.
Death receptors can elicit nonapoptotic death through the “receptor-interacting protein” (RIP), a death-domain-containing, serine-threonine kinase (6, 7). […] For example, cells were treated with zVAD after transfection with RIP RNAi or nonspecific (NS) oligonucleotides. Reduction in cell number (solid bars) and the fractions of cells with autophagic features based on TEM (open bars) are shown in FIG. 2A. FIG. 2B is a western blot for phospho-JNK (left lane) or total JNK protein (right lane) after zVAD treatment. zVAD activated c-Jun N-terminal kinase (JNK) that is also activated by RIP in response to cytokines.

L929 cells [4] = test: Transmission electron microscopy morphometric analysis of autophagy in L929 cells; format: cell-based, mouse; settings: for Apoptotic cell / Autophagic and apoptotic features / Autophagic cells(total) / Lytic/necrotic cell / Mild autophagy (cell with 10~19 vacuoles) / Moderate autophagy (cell with 20~29 vacuoles) / Normal cells / Severe Autophagy (cell with 30 or more vacuoles) / Vacuolated(but not autophagic): TEM, of total 100
Protocol: Cells were fixed in 3% glutaraldehyde in 0.1 M MOPS buffer (pH 7.0) for 8 hrs at room temperature, 3% glutaraldehyde/1% paraformaldehyde in 0.1 M MOPS buffer (pH 7.0) for 16 hours at 4° C., post-fixed in 1% osmium tetroxide for 1 hour, embedded in Spurr's resin, sectioned, double stained with Uranyl acetate and Lead citrate, and analyzed using a Zeiss EM 10 transmission electron microscope. For each treatment or control group, at least 100 cells from randomly chosen transmission electron microscopy fields were analyzed for quantification of morphological features. Cells with ≧10 vacuoles were scored as autophagy positive. Cells were stratified as follows: 0 (≦9 vacuoles/cell), 1(10-19 vacuoles/cell), 2 (20-29 vacuoles/cell), 3 (≧30 vacuoles/cell). Scores were ranked and comparisons of treatment to control groups were made using the Mann-Whitney U test using the Statview 5.0.1 program. Statistical analysis of the differences in FIG. 1, panels D, E, F, and G and FIG. 2A, B, D were significant (p<0.0001).
In mouse L929 fibroblastic cells, tumor necrosis factor (TNF), oxidants, ceramide, and radiation can induce caspase-independent death (11). […] L929 cells were treated with 1 ul of dimethyl sulfoxide (DMSO) FIG. 1A (a and c) or 20 uM zVAD (b and d) for 24 hours and examined by phase contrast microscopy (a and b); or 4′,6′-diamidino-2-phenylindole-staining and fluorescent microscopy (c and d). Magnification: 200×. […] The percentage of vaculated cells is the fraction of cells that have 10 or more autophagic vacuoles by TEM. Statistical analysis is shown in FIG. 4 and morphometric analysis of zVAD-induced autophagy in L929 cells is quantitated in Table 1 setforth below.

Cn1cnc(N)c2ncnc1-2 [3-MA, 3-methyladenine]
Effect on zVAD-induced cell loss (L929 cells [1]; WM 0.1 ug/ml or 3-MA 10 mM for 1 hour, then 20 uM zVAD for 36 hours, FIG. 1E): reduction in cell loss
Effect on zVAD-induced cell death (RAW264.7 cells; 0.1 ug/ml WM or 10 mM 3-MA for 1 hr, then 100 uM zVAD for 48 hrs): arrested zVAD-induced cell death
Effect on zVAD-induced cell death ([2]; 0.1 ug/ml WM or 10 mM 3-MA for 1 hr, then 100 uM zVAD for 24 hrs): arrested zVAD-induced cell death

COC(=O)CCC(NC(=O)C(CC(=O)OC)NC(=O)OCc1ccccc1)C(=O)NC(C(=O)NC(CC(=O)OC)C(=O)CF)C(C)C (stereo not shown) [DEVD, benzyloxycarbonyl-Aspartyl-(O-methyl)-Glutamyl-(O-methyl)-Valyl-Aspartyl-(O-methyl)-fluoromethylketone]
Induction of cell death (% cell loss) (L929 cells [1]; 20 uM, flow cytometry): no ability to induce cell death

O=C1c2ccccc2-c2n[nH]c3cccc1c23 [JNK inhibitor II, Anthra[1,9-cd]pyrazol-6 (2H)-one 1,9-pyrazoloanthrone]
Effect on zVAD-induced cell death (% cell loss) (L929 cells [1]; 1 ug/ml inhibitor for 1 hour, then 20 uM zVAD for 40 hours, flow cytometry, FIG. 8): blocked zVAD-induced cell death

COC(=O)CC(NC(=O)C(C)NC(=O)C(C)NC(=O)OCc1ccccc1)C(=O)CCl (stereo not drawn) [ZAAD, benzyloxycarbonyl-Alanyl-Alanyl-Aspartyl-(O-methyl)-chloromethylketone] (Cbz-Ala-Ala-Asp(OMe)-CH2Cl; configuration not given here)
Induction of cell death (% cell loss) (L929 cells [1]; 20 uM, flow cytometry): no ability to induce cell death

C[C@@H]1C[C@@H]([C@H](O)CC2CC(=O)NC(=O)C2)C(=O)[C@@H](C)C1 [cycloheximide, Cycloheximide]
Effect of protein synthesis inhibition on zVAD-induced cell death (L929 cells [1]; FIG. 2C): blocked cell death

COC(=O)CC(NC(=O)C(C)NC(=O)C(NC(=O)OCc1ccccc1)C(C)C)C(=O)CF (stereo not drawn) [zVAD, Benzyloxycarbonyl-Valyl-Alanyl-Aspartyl-(O-methyl)-fluoromethylketone] (Cbz-Val-Ala-Asp(OMe)-CH2F; configuration not given here)
RIP cleavage fragments characteristic of caspase-8 activity (RIP): no cleaved fragments were found
Time after which death was complete (L929 cells [1]; 20 uM zVAD, FIG. 1B): 40 h
Time at which death began after zVAD treatment (L929 cells [1]; 20 uM zVAD, FIG. 1B): 12 h
Induction of death of L929 cells (L929 cells [1]; 20 uM, 24 hours, microscopy): directly induced the death of L929 cells
Induction of cell death (% cell loss) (L929 cells [1]; 20 uM, flow cytometry): induced cell death
Induction of cell death (RAW264.7 cells; 100 uM zVAD for 48 hrs): induced cell death by the autophagic pathway
Activation of JNK (phospho-JNK Western blot) [3]: activated
Induction of cell death ([2]; 100 uM zVAD for 24 hrs): induced cell death by the autophagic pathway
Time course of zVAD induced autophagy (percentage of vacuolated cells, 10 or more autophagic vacuoles by TEM) (L929 cells [4]; FIG. 1D): vacuolated cells accumulated prior to cell death
Apoptotic cell (L929 cells [4]; zVAD 0 hrs): 0
Autophagic and apoptotic features (L929 cells [4]; zVAD 0 hrs): 0
Autophagic cells(total) (L929 cells [4]; zVAD 0 hrs): 0
Lytic/necrotic cell (L929 cells [4]; zVAD 0 hrs): 0
Mild autophagy (cell with 10~19 vacuoles) (L929 cells [4]; zVAD 0 hrs): 0
Moderate autophagy (cell with 20~29 vacuoles) (L929 cells [4]; zVAD 0 hrs): 0
Normal cells (L929 cells [4]; zVAD 0 hrs): 85
Severe Autophagy (cell with 30 or more vacuoles) (L929 cells [4]; zVAD 0 hrs): 0
Vacuolated(but not autophagic) (L929 cells [4]; zVAD 0 hrs): 15
Apoptotic cell (L929 cells [4]; zVAD 8 hrs): 4
Autophagic and apoptotic features (L929 cells [4]; zVAD 8 hrs): 1
Autophagic cells(total) (L929 cells [4]; zVAD 8 hrs): 76
Lytic/necrotic cell (L929 cells [4]; zVAD 8 hrs): 0
Mild autophagy (cell with 10~19 vacuoles) (L929 cells [4]; zVAD 8 hrs): 55
Moderate autophagy (cell with 20~29 vacuoles) (L929 cells [4]; zVAD 8 hrs): 20
Normal cells (L929 cells [4]; zVAD 8 hrs): 19
Severe Autophagy (cell with 30 or more vacuoles) (L929 cells [4]; zVAD 8 hrs): 1
Vacuolated(but not autophagic) (L929 cells [4]; zVAD 8 hrs): 0
Apoptotic cell (L929 cells [4]; zVAD 12 hrs): 1
Autophagic and apoptotic features (L929 cells [4]; zVAD 12 hrs): 1
Autophagic cells(total) (L929 cells [4]; zVAD 12 hrs): 93
Lytic/necrotic cell (L929 cells [4]; zVAD 12 hrs): 3
Mild autophagy (cell with 10~19 vacuoles) (L929 cells [4]; zVAD 12 hrs): 24
Moderate autophagy (cell with 20~29 vacuoles) (L929 cells [4]; zVAD 12 hrs): 59
Normal cells (L929 cells [4]; zVAD 12 hrs): 2
Severe Autophagy (cell with 30 or more vacuoles) (L929 cells [4]; zVAD 12 hrs): 10
Vacuolated(but not autophagic) (L929 cells [4]; zVAD 12 hrs): 0
